ChEMBL document CHEMBL1152890, “Synthesis and evaluation of a novel series of heterocyclic oleanolic acid derivatives with anti-osteoclast formation activity” (Eur J Med Chem, 2009)

How the values were obtained:
Format in all cases: functional
[1] = Antiosteoclast activity in ICR mouse osteoblast like cells co-cultured with bone marrow cells assessed as effect on 1-alpha,25(OH)2D3-induced TRAP-positive osteoclast like multinucleated cell formation at 2 uM after 6 days medium replaced every 2 days relative to control
[2] = Antiosteoclast activity in ICR mouse osteoblast like cells co-cultured with bone marrow cells assessed as effect on 1-alpha,25(OH)2D3-induced TRAP-positive osteoclast like multinucleated cell formation at 20 uM after 6 days medium replaced every 2 days relative to control
[3] = Antiosteoclast activity in ICR mouse osteoblast like cells co-cultured with bone marrow cells assessed as recovery of 1-alpha,25(OH)2D3-induced TRAP-positive osteoclast like multinucleated cell formation at 20 uM after 6 days drug removal after 2 days relative to control

| Structure (SMILES) | Activity [1] | Activity [2] | Activity [3] |
| --- | --- | --- | --- |
| COC(=O)CNC(=O)[C@]12CCC(C)(C)C[C@H]1C1=CC[C@@H]3[C@@]4(C)Cc5c([nH]c6ccc(Cl)cc56)C(C)(C)[C@@H]4CC[C@@]3(C)[C@]1(C)CC2 | 66.6% | 0% |  |
| COC(=O)[C@H](Cc1ccccc1)NC(=O)[C@]12CCC(C)(C)C[C@H]1C1=CC[C@@H]3[C@@]4(C)CCC(=O)C(C)(C)[C@@H]4CC[C@@]3(C)[C@]1(C)CC2 |  | 82.3% | 99.1% |
| CC1(C)CC[C@]2(C(=O)NCC(=O)O)CC[C@]3(C)C(=CC[C@@H]4[C@@]5(C)Cc6nccnc6C(C)(C)[C@@H]5CC[C@]43C)[C@@H]2C1 |  | 85.1% |  |
| CC(C)C[C@H](NC(=O)[C@]12CCC(C)(C)C[C@H]1C1=CC[C@@H]3[C@@]4(C)Cc5c([nH]c6ccccc56)C(C)(C)[C@@H]4CC[C@@]3(C)[C@]1(C)CC2)C(=O)O | 98.2% | 0% | 80.5% |
| CC1(C)CC[C@]2(C(=O)N[C@@H](Cc3ccccc3)C(=O)O)CC[C@]3(C)C(=CC[C@@H]4[C@@]5(C)Cc6nc7ccccc7nc6C(C)(C)[C@@H]5CC[C@]43C)[C@@H]2C1 |  | 75.4% |  |
| C[C@H](NC(=O)[C@]12CCC(C)(C)C[C@H]1C1=CC[C@@H]3[C@@]4(C)CCC(=O)C(C)(C)[C@@H]4CC[C@@]3(C)[C@]1(C)CC2)C(=O)O |  | 100% |  |
| CC(C)C[C@H](NC(=O)[C@]12CCC(C)(C)C[C@H]1C1=CC[C@@H]3[C@@]4(C)CCC(=O)C(C)(C)[C@@H]4CC[C@@]3(C)[C@]1(C)CC2)C(=O)O |  | 100.6% |  |
| CC[C@H](C)[C@H](NC(=O)[C@]12CCC(C)(C)C[C@H]1C1=CC[C@@H]3[C@@]4(C)Cc5c([nH]c6ccccc56)C(C)(C)[C@@H]4CC[C@@]3(C)[C@]1(C)CC2)C(=O)O |  | 84.4% |  |
| COC(=O)[C@H](C)NC(=O)[C@]12CCC(C)(C)C[C@H]1C1=CC[C@@H]3[C@@]4(C)Cc5c([nH]c6ccc(Cl)cc56)C(C)(C)[C@@H]4CC[C@@]3(C)[C@]1(C)CC2 | 79.9% | 10.1% |  |
| C[C@H](NC(=O)[C@]12CCC(C)(C)C[C@H]1C1=CC[C@@H]3[C@@]4(C)Cc5nc6ccccc6nc5C(C)(C)[C@@H]4CC[C@@]3(C)[C@]1(C)CC2)C(=O)O |  | 96.5% |  |
| COC(=O)[C@H](CC(C)C)NC(=O)[C@]12CCC(C)(C)C[C@H]1C1=CC[C@@H]3[C@@]4(C)CCC(=O)C(C)(C)[C@@H]4CC[C@@]3(C)[C@]1(C)CC2 |  | 92.9% | 100.2% |
| CC[C@H](C)[C@H](NC(=O)[C@]12CCC(C)(C)C[C@H]1C1=CC[C@@H]3[C@@]4(C)Cc5c([nH]c6ccccc56)C(C)(C)[C@@H]4CC[C@@]3(C)[C@]1(C)CC2)C(=O)OC |  | 98.4% |  |
| CC[C@H](C)[C@H](NC(=O)[C@]12CCC(C)(C)C[C@H]1C1=CC[C@@H]3[C@@]4(C)Cc5c([nH]c6ccc(Cl)cc56)C(C)(C)[C@@H]4CC[C@@]3(C)[C@]1(C)CC2)C(=O)OC |  | 82.4% |  |
| CC(C)[C@H](NC(=O)[C@]12CCC(C)(C)C[C@H]1C1=CC[C@@H]3[C@@]4(C)Cc5c([nH]c6ccccc56)C(C)(C)[C@@H]4CC[C@@]3(C)[C@]1(C)CC2)C(=O)O | 70.8% | 6.1% |  |
| CC1(C)CC[C@]2(C(=O)O)CC[C@]3(C)C(=CC[C@@H]4[C@@]5(C)Cc6nc7ccccc7nc6C(C)(C)[C@@H]5CC[C@]43C)[C@@H]2C1 | 72.7% | 0% | 92.6% |
| CC1(C)CC[C@]2(C(=O)O)CC[C@]3(C)C(=CC[C@@H]4[C@@]5(C)Cc6c([nH]c7ccc(C(=O)O)cc67)C(C)(C)[C@@H]5CC[C@]43C)[C@@H]2C1 | 77.2% | 0% | 97.8% |
| CC1(C)CC[C@]2(C(=O)O)CC[C@]3(C)C(=CC[C@@H]4[C@@]5(C)Cc6nc7cc([N+](=O)[O-])ccc7nc6C(C)(C)[C@@H]5CC[C@]43C)[C@@H]2C1 | 88.7% | 24.1% |  |
| CC1(C)CC[C@]2(C(=O)N[C@@H](Cc3ccccc3)C(=O)O)CC[C@]3(C)C(=CC[C@@H]4[C@@]5(C)CCC(=O)C(C)(C)[C@@H]5CC[C@]43C)[C@@H]2C1 |  | 80.7% |  |
| COC(=O)[C@H](C)NC(=O)[C@]12CCC(C)(C)C[C@H]1C1=CC[C@@H]3[C@@]4(C)Cc5c([nH]c6ccccc56)C(C)(C)[C@@H]4CC[C@@]3(C)[C@]1(C)CC2 | 99.4% | 0% | 81.5% |
| C[C@H](NC(=O)[C@]12CCC(C)(C)C[C@H]1C1=CC[C@@H]3[C@@]4(C)Cc5nccnc5C(C)(C)[C@@H]4CC[C@@]3(C)[C@]1(C)CC2)C(=O)O |  | 76.5% |  |
| COC(=O)[C@H](C)NC(=O)[C@]12CCC(C)(C)C[C@H]1C1=CC[C@@H]3[C@@]4(C)CCC(=O)C(C)(C)[C@@H]4CC[C@@]3(C)[C@]1(C)CC2 | 68.7% | 29.3% |  |

| Structure (SMILES) | Activity [1] | Activity [2] | Activity [3] |
| --- | --- | --- | --- |
| CC[C@H](C)[C@H](NC(=O)[C@]12CCC(C)(C)C[C@H]1C1=CC[C@@H]3[C@@]4(C)Cc5nc6ccccc6nc5C(C)(C)[C@@H]4CC[C@@]3(C)[C@]1(C)CC2)C(=O)OC |  | 78.5% |  |
| CC1(C)CC[C@]2(C(=O)O)CC[C@]3(C)C(=CC[C@@H]4[C@@]5(C)Cc6c([nH]c7ccccc67)C(C)(C)[C@@H]5CC[C@]43C)[C@@H]2C1 | 94.6% | 51.1% |  |
| COC(=O)[C@@H](NC(=O)[C@]12CCC(C)(C)C[C@H]1C1=CC[C@@H]3[C@@]4(C)CCC(=O)C(C)(C)[C@@H]4CC[C@@]3(C)[C@]1(C)CC2)C(C)C |  | 100.6% |  |
| CC[C@H](C)[C@H](NC(=O)[C@]12CCC(C)(C)C[C@H]1C1=CC[C@@H]3[C@@]4(C)CCC(=O)C(C)(C)[C@@H]4CC[C@@]3(C)[C@]1(C)CC2)C(=O)O |  | 100.3% |  |
| COC(=O)[C@H](CC(C)C)NC(=O)[C@]12CCC(C)(C)C[C@H]1C1=CC[C@@H]3[C@@]4(C)Cc5c([nH]c6ccc(Cl)cc56)C(C)(C)[C@@H]4CC[C@@]3(C)[C@]1(C)CC2 |  | 86% |  |
| CC[C@H](C)[C@H](NC(=O)[C@]12CCC(C)(C)C[C@H]1C1=CC[C@@H]3[C@@]4(C)CCC(=O)C(C)(C)[C@@H]4CC[C@@]3(C)[C@]1(C)CC2)C(=O)OC | 94% | 1.4% |  |
| COC(=O)[C@@H](NC(=O)[C@]12CCC(C)(C)C[C@H]1C1=CC[C@@H]3[C@@]4(C)Cc5c([nH]c6ccccc56)C(C)(C)[C@@H]4CC[C@@]3(C)[C@]1(C)CC2)C(C)C |  | 99% |  |
| COC(=O)[C@H](Cc1ccccc1)NC(=O)[C@]12CCC(C)(C)C[C@H]1C1=CC[C@@H]3[C@@]4(C)Cc5c([nH]c6ccccc56)C(C)(C)[C@@H]4CC[C@@]3(C)[C@]1(C)CC2 | 69.2% | 0% | 79.8% |
| CC(C)[C@H](NC(=O)[C@]12CCC(C)(C)C[C@H]1C1=CC[C@@H]3[C@@]4(C)Cc5nccnc5C(C)(C)[C@@H]4CC[C@@]3(C)[C@]1(C)CC2)C(=O)O |  | 83.5% |  |
| CC1(C)CC[C@]2(C(=O)NCC(=O)O)CC[C@]3(C)C(=CC[C@@H]4[C@@]5(C)Cc6c([nH]c7ccccc67)C(C)(C)[C@@H]5CC[C@]43C)[C@@H]2C1 | 95.2% | 9% |  |
| CC1(C)CC[C@]2(C(=O)N[C@@H](Cc3ccccc3)C(=O)O)CC[C@]3(C)C(=CC[C@@H]4[C@@]5(C)Cc6nccnc6C(C)(C)[C@@H]5CC[C@]43C)[C@@H]2C1 |  | 89.4% |  |
| CC1(C)CC[C@]2(C(=O)N[C@@H](Cc3ccccc3)C(=O)O)CC[C@]3(C)C(=CC[C@@H]4[C@@]5(C)Cc6c([nH]c7ccccc67)C(C)(C)[C@@H]5CC[C@]43C)[C@@H]2C1 |  | 58% |  |
| C[C@H](NC(=O)[C@]12CCC(C)(C)C[C@H]1C1=CC[C@@H]3[C@@]4(C)Cc5c([nH]c6ccccc56)C(C)(C)[C@@H]4CC[C@@]3(C)[C@]1(C)CC2)C(=O)O | 90.2% | 21% |  |
| COC(=O)[C@@H](NC(=O)[C@]12CCC(C)(C)C[C@H]1C1=CC[C@@H]3[C@@]4(C)Cc5c([nH]c6ccc(Cl)cc56)C(C)(C)[C@@H]4CC[C@@]3(C)[C@]1(C)CC2)C(C)C | 90.8% | 21.1% |  |
| CC(C)[C@H](NC(=O)[C@]12CCC(C)(C)C[C@H]1C1=CC[C@@H]3[C@@]4(C)CCC(=O)C(C)(C)[C@@H]4CC[C@@]3(C)[C@]1(C)CC2)C(=O)O |  | 99.8% |  |
| COC(=O)CNC(=O)[C@]12CCC(C)(C)C[C@H]1C1=CC[C@@H]3[C@@]4(C)Cc5nccnc5C(C)(C)[C@@H]4CC[C@@]3(C)[C@]1(C)CC2 | 93.5% | 41.1% |  |
| COC(=O)[C@H](CC(C)C)NC(=O)[C@]12CCC(C)(C)C[C@H]1C1=CC[C@@H]3[C@@]4(C)Cc5c([nH]c6ccccc56)C(C)(C)[C@@H]4CC[C@@]3(C)[C@]1(C)CC2 |  | 96.8% |  |
| CC1(C)CC[C@]2(C(=O)NCC(=O)O)CC[C@]3(C)C(=CC[C@@H]4[C@@]5(C)Cc6nc7ccccc7nc6C(C)(C)[C@@H]5CC[C@]43C)[C@@H]2C1 |  | 91.9% |  |
| CC1(C)CC[C@]2(C(=O)O)CC[C@]3(C)C(=CC[C@@H]4[C@@]5(C)Cc6c([nH]c7ccc([N+](=O)[O-])cc67)C(C)(C)[C@@H]5CC[C@]43C)[C@@H]2C1 | 83% | 0% | 38.6% |
| CC1(C)CC[C@]2(C(=O)NCC(=O)O)CC[C@]3(C)C(=CC[C@@H]4[C@@]5(C)CCC(=O)C(C)(C)[C@@H]5CC[C@]43C)[C@@H]2C1 |  | 103% |  |
| CC1(C)CC[C@]2(C(=O)O)CC[C@]3(C)C(=CC[C@@H]4[C@@]5(C)CCC(=O)C(C)(C)[C@@H]5CC[C@]43C)[C@@H]2C1 [OLEANONIC ACID] | 79.2% | 1.4% |  |
